{
  "source": "patent US20030216319A1",
  "about": "“Specific autoimmune reactions against isomerised/optically inverted epitopes: application for treatment of autoimmune diseases” (priority 2000, published 2003)",
  "key": {"[1]": {"test_system": "immunoaffinity purified RA auto-antibodies", "assay": "Immuno-blotting of cellulose-bound spot peptides with immunoaffinity purified RA auto-antibodies (Example 5)", "format": "binding, human", "settings": "IgM RF eluate 1 μg/mL", "protocol": "1. IgG is coupled to CNBr activated Sepharose using the manufacturers instructions (Pharmacia, Upsala, Sweden).\n2. The IgG Sepharose is packed in a suitable column (i.e. a disposable DG10 column, BioRad laboratories, Richmond, Calif.). The column is washed with at least 10 column volumes PBS and with 10 column volumes 0.1 M sodium acetate, 0.15 M sodium chloride pH 3.5 and finally equilibrated in PBS.\n3. Serum from RA patients is diluted 10 times in PBS and loaded on the column. The column is washed with PBS until the absorbency (OD 280 nm) reaches base-line.\n4. Bound RF's are eluted with 0.1 M sodium acetate, 0.15 M sodium chloride pH 3.5.\n5. IgM is separated from IgG and IgA by gel-filtration on a Sephadex G-200 column in 0.1 M sodium acetate, 0.15 M sodium chloride pH 3.5.\n6. Eluted IgM is diluted in PBS-BT to 1 μg/mL and assayed as described below.\nSeven amino-acid peptides extending over the Asn-315 residue were synthesised by spot synthesis using Whatman 540 paper (Maidstone, U.K.), using the previously described procedures (Frank, 1992, Kramer et al 1994). The peptides were automatically prepared using a spot synthesis method (Abimed, Langenfeld, FRG). The following peptides were synthesised, covalently attached via the carboxy-terminus:\nThe cellulose membrane containing these peptides was incubated with the immunoaffinity purified RA auto-antibodies purified as described above. […]"}, "human immunoglobulin": {"test_system": "human immunoglobulin", "assay": "Homogeneous RIA with 125I-BSA-BS3-Pro-Ser-Glu-γ-Gly-Lys-Gly-Arg-Gly in MS and control sera (Example 9)", "format": "binding", "description": "For this purpose the MBP derived octapeptide Pro-Ser-Glu-γ-Gly-Lys-Gly-Arg-Gly (γL) was manufactured synthetically using standard FMOC chemistry. The peptide was conjugated to bovine serum albumin (BSA) by Bis[sulfosuccinimidyl]suberate (BS^3) according to the manufacturers instructions (Pierce) and iodinated with ^125I using the chloramine T protocol as described in Example 4.\nSerum from 9 MS-patients and 8 healthy persons are reacted overnight with ^125I-BSA-BS^3-Pro-Ser-Glu-γ-Gly-Lys-Gly-Arg-Gly followed by precipitation of immune complexes with protein A Sepharose. Serum samples are diluted 1:200 in IMP buffer. The ^125I BSA-BS^3-Pro-Ser-Glu-γ-Gly-Lys-Gly-Arg-Gly tracer is diluted in IMP buffer (to an activity of 100000 CPM/25 μl). Seventy-five μl of diluted serum sample is mixed with 25 μl tracer and 25 μl of either IMP buffer or free (unconjugated/unlabelled) Pro-Ser-Glu-γ-Gly-Lys-Gly-Arg-Gly peptide (in a concentration of […] in IMP buffer) is added to this mixture. This mixture is incubated overnight at 4° C. Protein. A Sepharose (PAS) 20 μl/sample vial is weighed out and washed 3 times with 10 ml IMP washing buffer, and transferred to eppendorf 1.5 ml tubes using a repeater pipette. The PAS is sedimented by centrifugation at 2000 RPM 2 min., and the supernatant is aspirated using a suction device (or a pipette). […]"}, "RA autoantibodies": {"test_system": "RA autoantibodies", "assay": "Competition ELISA: binding of RA autoantibodies to Thy-GA-Trp-Leu-*Asx-Gly-Lys-Glu-Tyr coated plates (Example 3)", "parameters": "species or system human", "settings": "competitor 50 μl of 50 μg/ml pre-incubated with serum 17 hours at 4° C.; 6 RA sera", "protocol": "The Thy-GA-Trp-Leu-*Asx-Gly-Lys-Glu-Tyr conjugate was dissolved in PBS to a final concentration of 10 μg/ml, and 100 μL of this solution is pipetted into the wells of a micro-titre-plate (MTP, flat-well polysorb, Nunc). the plate was blocked as described (Bonde et al 1994), and serum samples diluted one-hundred fold in 10 mM Na-phosphate, 140 mM NaCl, 0.1% tween-20, 1% BSA pH 7.4 (assay buffer) were added. The MTP was left for one hour ±5 minutes on a rotary shaker at 20° C. The plates were washed five times in washing buffer (25 mM tris, 140 mM NaCl, 0.1% tween-20 pH 7.4), by a manual plate washer. One-hundred μL assay buffer containing a one-thousand fold dilution of Perxidase conjugated rabbit anti human λ-chains (Dako 063) and κ-chains (Dako 013) was added into each well. The MTP was again incubated for one hour ±5 minutes on a rotary mixer at 20° C. After 5 times washing, 100 μl of peroxidase substrate was added (3,3′,5,5′ tetramethylbenzidine dihydrochloride (TMB), Kirkegaard & Perry Laboratories, USA) and incubated for 15±2 minutes at room temperature (18-22° C.) in the dark. After addition of 0.18 M H2SO4, the absorbency was measured at 450 nm.\nThe experiment was carried out as follows. Serum samples were diluted one-hundred fold in 10 mM Na-phosphate, 140 mM NaCl, 0.1% tween-20, 1% BSA pH 7.4 (assay buffer). Two-hundred μl was added to 1.5 ml polypropylene tubes followed by addition of 50 μl of the following reagents dissolved in assay buffer at a concentration of 50 μg/ml:\nThe tubes were placed at 4° C. for 17 hours, and one-hundred μl of the mixture was added into MTP coated with Thy-GA-Trp-Leu-*Asx-Gly-Lys-Glu-Tyr conjugate. The assay was performed as described above under example 2."}, "[2]": {"test_system": "auto-antibodies reactive with isomerised IgG Fc Asn-315 derived peptides", "assay": "Homogeneous RIA with 125I Thy-GA-Trp-Leu-*Asx-Gly-Lys-Glu-Tyr tracer, competition with peptides (Example 4)", "format": "binding, human", "settings": "highest concentration (10,000 ng/ml); P-0.01 by Student's T-Test", "protocol": "A homogeneous RIA assay was developed for measurement of auto-antibodies with reactivity towards the isomerised form of the epitope Trp-Leu-Asn-Gly-Lys-Glu-Tyr derived from the IgG CH2 region. The assay was performed by incubating serum samples with ^125I Thy-GA-Trp-Leu-*Asx-Gly-Lys-Glu-Tyr overnight followed by precipitation of immune-complexes with protein A Sepharose.\nSerum samples are diluted 1:200 in IMP buffer (IMP-buffer: 10 mm Na-Phosphate, pH 7.4, 140 mM NaCl, 5 mM EDTA, 0.5% Triton X-100, 0.1% BSA, 10 μg/ml soy-bean trypsin inhibitor). A Thy-GA-Trp-Leu-*Asx-Gly-Lys-Glu-Tyr conjugate is prepared as described in example 2 and iodinated with ^125I using the chloramine T protocol: 100 μg of the conjugate is diluted in 0.25 M Na2HPO4 to a total volume of 140 μl. 1.5 mCi Na^125I is added followed by 10 μL Chloramin-T (1 mg/ml, prepared freshly). The solution is vortexed for 30 seconds and 150 μL methionine (1 mg/ml) is added and immediately vortexed for 120 sec. The tracer is purified on size exclusion column (type: BIOSEP SEC S-2000, size: 300×7.80 mm) equilibrated with PBS containing 1% BSA Plow rate 1.0 ml/min. 500 μl fractions are collected and analysed in a scintillation counter (γ-counter). The fractions containing the tracer are pooled and used in the homogeneous RIA assay format. […]"}},
  "data": [
    {"substance": "His-Gln-Asp-Trp-Leu-Asp-β-Gly... [peptide IV]", "values": [
      {"measurement": "reactivity of purified RA auto-antibodies towards cellulose-bound peptide", "setting": "[1]", "result": "strong reactivity"}
    ]},
    {"substance": "Pro-Ser-Glu-γ-Gly-Lys-Gly-Arg-Gly", "values": [
      {"measurement": "inhibition of binding of tracer conjugate to human immunoglobulin by free peptide", "setting": "human immunoglobulin; 25 μl free peptide, 10 μl/mL in IMP buffer", "result": "could be specifically inhibited"},
      {"measurement": "% inhibition of immunoglobulin binding by free peptide, MS sera compared to control sera", "setting": "human immunoglobulin; p=0.008, two-tailed non-parametric t-test", "result": "significantly higher"}
    ]},
    {"substance": "Trp-Leu-Asp-β-Gly-Lys-Glu-Tyr", "values": [
      {"measurement": "competition of binding of RA autoantibodies to Thy-GA-Trp-Leu-*Asx-Gly-Lys-Glu-Tyr coated plates", "setting": "RA autoantibodies", "result": "able to compete out the binding"},
      {"measurement": "reactivity in competition RIA (percent inhibition by competing peptide), group basis", "setting": "[2]", "result": "significant reactivity"}
    ]}
  ]
}
